Article PMC12314576, “The Actin‐Binding Prolyl‐Isomerase Par17 Sustains Its Substrate Selectivity by Interdomain Allostery” (Proteins, 2025)
Starred links: 1 amine or outer side, 2 acyl side, 3 side chain; linkers in the order of their positions; H or OH if unused. Residues, ends and D or L forms follow the SMILES beside them. *: point of attachment. pNA = O=[N+]([O-])c1ccc(N*)cc1; Suc = O=C(CCC(=O)[*:2])[*:1]

Experiments:
[1] = target: T1, Par17 (Homo sapiens, UniProt Q9Y237); experiment: Protease-coupled isomerase assay (PPIase assay) with Par17; format: biochemical; settings: for k = kobserved - kthermic, Par17: α-chymotrypsin 35 μM, PBS pH 6.8, 10°C, substrate 75 μM, PPIase 2 μM, absorbance 390 nm, mean ± SD
T1 construct: full‐length Par17 and the N‐terminus of Par17; GST-His6 (PreScission site) (N, cleaved yes); Gly-Pro remnant of the PreScission site (Gly stands at position 1 in place of Met1); made in house; host or cells: E. coli BL21 (DE3) T1r
T1 sequence (Q9Y237 1-156 isoform Q9Y237-2): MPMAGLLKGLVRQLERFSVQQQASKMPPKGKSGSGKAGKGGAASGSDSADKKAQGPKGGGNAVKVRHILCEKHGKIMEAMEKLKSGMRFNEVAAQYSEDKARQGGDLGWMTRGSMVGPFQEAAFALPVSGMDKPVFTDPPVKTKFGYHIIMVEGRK
Procedure: (§1) To determine the catalytic efficiency and substrate specificity of Par14 and Par17, we performed a protease‐coupled assay. In this assay, the trans form of a para‐nitroaniline (pNA) tagged model substrate is cleaved by chymotrypsin, and the resulting change in absorption at 390 nm due to free pNA is measured. When the model substrate is added to the protease‐containing buffer, all trans‐Xaa‐Pro isomers are immediately cleaved by chymotrypsin. Therefore, the extent of the first signal burst observed in the absorption spectrum correlates with the amount of trans isomers of the model substrate formed during the experimental dead time. The remaining cis‐Xaa substrates now start to isomerize by thermal (in the absence of PPIase) or catalytic reaction (in the presence of PPIase). The newly formed trans‐Xaa substrates are immediately cleaved, and isomerization can thus be monitored over time (Figure 2). Eighteen different substrate peptides with varying amino acids at the Xaa position (Suc‐Ala‐Xaa‐Pro‐Phe‐pNa) were measured to determine the isomerase activity and substrate selectivity of Par14 (Par17Δ1–25), Par17, and the catalytic domain (Par17Δ1–60) (Table S1). The catalytic efficiency is obtained from the observed isomerization curves by calculating the difference between the rate constant in the presence of enzyme and the rate constant obtained from thermal isomerization.
(§2) We determined the isomerase activity using the PPIase assay described by. The lyophilized peptides were dissolved in an adequate volume of 0.5 mM‐LiCl/TFE buffer to obtain a 15 mM stock solution. To achieve a stable cis/trans ratio the mixture was incubated overnight at 4°C. The next day a stock solution of 350 μM α‐chymotrypsin in PBS was incubated on ice for at least 20 min. For measurements without PPIase PBS buffer (pH 6.8) was mixed with α‐chymotrypsin to a final concentration of 35 μM in 1 mL. A baseline was recorded for 5 min (Cary 100Bio UV/Vis spectrophotometer, Varian/Agilent, Santa Clara, US, λ: 390 nm, bandwidth: 1.0 nm, average time between measurements: 0.5 s, temperature: 10°C). After 5 min the substrate peptide was added to a final concentration of 75 μM in 1 mL [59]. The solution was mixed by inverting the cuvette three times and the reaction was recorded for 15 min. Measurements in the presence of PPIase were performed in the same way, except that before the baseline measurement, the appropriate isomerase was added in a final concentration of 2 μM in 1 mL in addition to PBS and α‐chymotrypsin.
(§3) For the data analysis, a mean value of the baseline was subtracted (average of the first 200 data points). The measured values were normalized according to the respective maximum of the measurement. To determine the rate constant, the program graph pad was used, and non‐linear curve fitting was applied for each measurement (exponential, one‐phase association). (1) Y=Y0+Plateau−Y0∙1−e^−K∙x
(§4) where x is the time (min), Y is the absorbance, Y 0 is the absorbance when x = 0, Plateau is the Y value at infinite times, K is the rate constant (min^−1).
(§5) The K cat/K M value was calculated according to Equation (2): (2) kcat/KM=kobs−ktherm/PPIase where k cat/K M is the catalytic efficiency (M^−1 s^−1), k obs, rate constant of the observed reaction (s^−1), k therm is the rate constant of the thermic reaction (s^−1), and [PPIase] is the concentration of PPIase used in the assay (M).
(§6) The obtained data are fitted to Equation (2) using a pseudo first‐order assumption. This is the case, if k obs values behave linearly with rising PPIase concentrations.

[2] = target: T2, Par14 (Par17Δ1-25) (Homo sapiens, UniProt Q9Y237); experiment: Protease-coupled isomerase assay (PPIase assay) with Par14; format: biochemical; settings: α-chymotrypsin 35 μM, PBS pH 6.8, 10°C, substrate 75 μM, PPIase 2 μM, absorbance 390 nm; mean ± SD
T2 construct: Comparison of spectra of full‐length parvulin proteins and PPIase domain; GST-His6 (PreScission site) (N, cleaved yes); made in house; host or cells: E. coli BL21 (DE3) T1r
T2 sequence (Q9Y237 whole entry, stated change not applied, the tested form may be a part): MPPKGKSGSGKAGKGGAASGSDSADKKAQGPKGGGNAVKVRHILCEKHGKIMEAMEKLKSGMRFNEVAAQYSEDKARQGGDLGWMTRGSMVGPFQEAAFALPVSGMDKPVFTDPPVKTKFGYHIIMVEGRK
Procedure: as §1, §2, §3, §4, §5, §6

[3] = target: T3, PPIase domain (Par17Δ1-60) (Homo sapiens, UniProt Q9Y237); experiment: Protease-coupled isomerase assay (PPIase assay) with the catalytic domain; format: biochemical; settings: α-chymotrypsin 35 μM, PBS pH 6.8, 10°C, substrate 75 μM, PPIase 2 μM, absorbance 390 nm; mean ± SD
T3 construct: GST-His6 (PreScission site) (N, cleaved yes); made in house; host or cells: E. coli BL21 (DE3) T1r
T3 sequence (Q9Y237 36-131, stated change not applied): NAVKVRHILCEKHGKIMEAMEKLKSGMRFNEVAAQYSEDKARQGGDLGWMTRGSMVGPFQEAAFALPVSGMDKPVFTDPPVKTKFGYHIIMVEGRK
Procedure: as §1, §2, §3, §4, §5, §6

[4] = target: T1, Par17; experiment: NMR titration of substrate peptides to 15N-labeled full-length Par17; format: binding; settings: 300 μM Par17, KPi pH 6.7, 20°C
Procedure: The amide signals were assigned and combined chemical shift changes between the signals of free and substrate‐bound isomers were calculated.
(§7) For NMR measurements, purified and concentrated proteins in salt‐free buffers were mixed with 10% D2O and 1 μL DSS standard. Spectra were measured on an ultra shield 700‐NMR (Bruker, Billerica, US) with a triple resonance cryoprobe (700 MHz). For recording and processing of data, the software Topspin 3.5 was used. Analysis of spectra was carried out using Cara analysis software 2.3.1 (Rochus L.J. Keller) and/or CcpNmr Analysis 2.3.1 (Department of Molecular and Cell Biology, University of Leicester, UK).
Titration of substrate peptides to ^ 15 N‐labeled full‐length Par17 and the N‐terminus of Par17: The following substrate peptides were diluted in salt‐free 50 mM KPi buffer pH 6.7 to a concentration of 15 mM (Suc: Succinyl, pNA: para‐Nitroanilin):
They were added stepwise to 200 μL of the labeled parvulins (300 μM in 50 mM KPi buffer pH 6.7). Spectra were recorded with the pulse program Best‐TROSY at 20°C. Combined chemical shifts were calculated as described. Microscopic dissociation constant K D was fitted with the following equation (assuming a 1:1 binding model): (4) ∆δ=∆δmax·P+x+KD−P+x+KD^2−4·x·P/2·P
where ∆δmax is the amplitude, P is the protein concentration, X is the concentration of the peptide.
Differences in chemical shift changes could be measured up to 0.001 ppm (error in peak picking). Changes were interpreted as significant if Δ > 0.004 ppm and when appearing consecutively in a linear sequence element.
The microscopic K D describes the binding affinity of the ligand to a single side of an amino acid.

[5] = system: Par17Δ61–156; experiment: NMR titration of substrate peptides to 15N-labeled N-terminus of Par17; format: binding, human; settings: 15N-BEST-TROSY-HSQC, 50 mM KPi pH 6.7, 20°C; protein 0.3 mM, substrate 3 mM
Source text: To elucidate the physical nature of the chemical shift changes in Par17 upon the addition of selected substrate peptides, we investigated whether the isolated N‐terminus of Par17 (Par17Δ61–156) is also capable of binding various substrates on its own. […] This indicates the existence of an independent binding epitope located within the N‐terminus.
In the next step, we studied if this binding epitope is selectively interacting with peptides carrying Xaa‐Pro motifs. We already knew from former studies that model peptides carrying alanine instead of proline in the Xaa position are capable of binding to the hydrophobic catalytic center without being catalyzed.
as §7, with “UK). […]” for “UK).”
They were added stepwise to 200 μL of the labeled parvulins (300 μM in 50 mM KPi buffer pH 6.7). Spectra were recorded with the pulse program Best‐TROSY at 20°C. Combined chemical shifts were calculated as described. […]

C[C@H](NC(=O)CCC(=O)O)C(=O)N[C@@H](CCCCN)C(=O)N1CCC[C@H]1C(=O)N[C@@H](Cc1ccccc1)C(=O)Nc1ccc([N+](=O)[O-])cc1 [Lys, Suc‐Ala‐Lys‐Pro‐Phe‐pNa]
k cat/K M of Par17, times higher than for Leu‐Pro, Gln‐Pro or His‐Pro peptides ([1]; ratio of k cat/K M values): approximately 10 times | k = kobserved - kthermic, Par17 [1]: 0.33 ± 0.012 min⁻¹ | k = kobserved - kthermic, Par14 (Par17Δ1-25) [2]: 0.412 ± 0.014 min⁻¹ | k = kobserved - kthermic, PPIase domain (Par17Δ1-60) [3]: 0.442 ± 0.006 min⁻¹ | Combined chemical shift perturbation of full length Par17, 115M ([4]; peptide 0,2 mM): 0,00414271 ppm | Combined chemical shift perturbation of full length Par17, 119F ([4]; peptide 0,2 mM): 0,00604921 ppm | Combined chemical shift perturbation of full length Par17, 115M ([4]; peptide 1 mM): 0,01818939 ppm | Combined chemical shift perturbation of full length Par17, 116V ([4]; peptide 1 mM): 0,06817833 ppm | Combined chemical shift perturbation of full length Par17, 119F ([4]; peptide 1 mM): 0,02459781 ppm | Combined chemical shift perturbation of full length Par17, 115M ([4]; peptide 2 mM): 0,03362789 ppm | Combined chemical shift perturbation of full length Par17, 116V ([4]; peptide 2 mM): 0,13037308 ppm | Combined chemical shift perturbation of full length Par17, 119F ([4]; peptide 2 mM): 0,04192915 ppm | Combined chemical shift perturbation of full length Par17, 115M ([4]; peptide 3 mM): 0,04495973 ppm | Combined chemical shift perturbation of full length Par17, 116V ([4]; peptide 3 mM): 0,18551846 ppm | Combined chemical shift perturbation of full length Par17, 119F ([4]; peptide 3 mM): 0,05880948 ppm | Combined chemical shift perturbation of full length Par17, 115M ([4]; peptide 4 mM): 0,05828389 ppm | Combined chemical shift perturbation of full length Par17, 116V ([4]; peptide 4 mM): 0,23776807 ppm | Combined chemical shift perturbation of full length Par17, 119F ([4]; peptide 4 mM): 0,07526515 ppm | Combined chemical shift perturbation of full length Par17, 115M ([4]; peptide 5 mM): 0,06478417 ppm | Combined chemical shift perturbation of full length Par17, 119F ([4]; peptide 5 mM): 0,08126177 ppm

CC(C)[C@H](NC(=O)[C@H](C)NC(=O)CCC(=O)O)C(=O)N1CCC[C@H]1C(=O)N[C@@H](Cc1ccccc1)C(=O)Nc1ccc([N+](=O)[O-])cc1 [Val, Suc‐Ala‐Val‐Pro‐Phe‐pNa] (Suc-AVPF-pNA)
k = kobserved - kthermic, Par17 [1]: 0.011 ± 0.005 min⁻¹ | k = kobserved - kthermic, Par14 (Par17Δ1-25) [2]: 0.408 ± 0.432 min⁻¹ | k = kobserved - kthermic, PPIase domain (Par17Δ1-60) [3]: 0.289 ± 0.166 min⁻¹ | Combined chemical shift perturbation of full length Par17, 113G ([4]; peptide 0,35 mM): 0,024 ppm | Combined chemical shift perturbation of full length Par17, 115M ([4]; peptide 0,35 mM): 0,015 ppm | Combined chemical shift perturbation of full length Par17, 116V ([4]; peptide 0,35 mM): 0,049 ppm | Combined chemical shift perturbation of full length Par17, 119F ([4]; peptide 0,35 mM): 0,022 ppm | Combined chemical shift perturbation of full length Par17, 113G ([4]; peptide 3 mM): 0,157 ppm | Combined chemical shift perturbation of full length Par17, 115M ([4]; peptide 3 mM): 0,084 ppm | Combined chemical shift perturbation of full length Par17, 116V ([4]; peptide 3 mM): 0,326 ppm | Combined chemical shift perturbation of full length Par17, 119F ([4]; peptide 3 mM): 0,125 ppm | Combined chemical shift perturbation of full length Par17, 113G ([4]; peptide 5 mM): 0,221 ppm | Combined chemical shift perturbation of full length Par17, 115M ([4]; peptide 5 mM): 0,11 ppm | Combined chemical shift perturbation of full length Par17, 116V ([4]; peptide 5 mM): 0,454 ppm | Combined chemical shift perturbation of full length Par17, 119F ([4]; peptide 5 mM): 0,167 ppm | Combined chemical shift perturbation of full length Par17, 113G ([4]; peptide 1,5 mM): 0,099 ppm | Combined chemical shift perturbation of full length Par17, 115M ([4]; peptide 1,5 mM): 0,055 ppm | Combined chemical shift perturbation of full length Par17, 116V ([4]; peptide 1,5 mM): 0,201 ppm | Combined chemical shift perturbation of full length Par17, 119F ([4]; peptide 1,5 mM): 0,08 ppm

Suc–Ala–Glu–Ala–Phe–pNA [proline-free model peptide carrying alanine instead of proline]
binding to the N-terminal epitope of Par17 [5]: interact with the N‐terminal epitope
